The results in this text go back to article PMC4954776 (Nature chemical biology, 2013).

In data set [1] the test system is RAF family members (ARAF, BRAF, CRAF, KSR1, KSR2) kinase domain dimers. Nature of the data set: Panel of RAF dimerization BRET biosensors. The data set is classed as cell-based. The conditions noted are these: for induction of RAF dimerization in kinase inhibitor library screen: collection of 184 compounds, Fig. 5a; for RAFKD dimer induction profile across biosensor panel: dose-response, BRAFKD and CRAFKD acceptor probes, Fig. 2c. A general note: Bioluminescence resonance energy transfer reports proximity on the nanometre scale.

Data set [2] can be described thus: Solubility in aqueous solution. The data set is classed as physicochemical.
The target of data set [3] is BRAFKD WT / BRAFKD R509H (Homo sapiens, UniProt P15056, R509H). The format is cell-based. To be noted: 33 nM; Fig. 1e.
For data set [4], the target named is BRAFKD WT / BRAFKD WT (Homo sapiens, UniProt P15056). The data set is classed as cell-based. The conditions noted are these: 33 nM; Fig. 1e.
In data set [5] the target is BRAFKD/BRAFKD (RlucII-BRAFKD-CAAX / GFP10-BRAFKD-CAAX) (Homo sapiens, UniProt P15056). The data set can be described thus: BRET titration curves, BRAFKD homodimerization biosensor. The data set is classed as cell-based. To be noted: Fig. 1c.
Data set [6] addresses BRAF/KSR1 dimers (Homo sapiens, UniProt P15056+Q8IVT5). Nature of the data set: BRET biosensor BRAF/KSR1 dimers. To be noted: Fig. 2c. The format is cell-based.
Data set [7] addresses T1, PERK kinase domain dimerization (Mus musculus, UniProt Q9Z2B5, DEL661-875).
T1 sequence (Q9Z2B5 with tags, fused parts or gaps DEL661-875): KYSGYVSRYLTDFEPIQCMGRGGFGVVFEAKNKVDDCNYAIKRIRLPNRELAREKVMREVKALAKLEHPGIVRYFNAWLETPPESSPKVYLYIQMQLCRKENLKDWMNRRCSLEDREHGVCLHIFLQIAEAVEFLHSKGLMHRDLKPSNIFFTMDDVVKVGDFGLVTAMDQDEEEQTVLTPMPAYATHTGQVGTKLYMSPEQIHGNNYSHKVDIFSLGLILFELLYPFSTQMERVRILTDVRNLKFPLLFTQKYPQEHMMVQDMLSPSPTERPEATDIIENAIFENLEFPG
Nature of the data set: Sedimentation velocity analytical ultracentrifugation of PERK kinase domain. The data set is classed as binding, Murine. The conditions noted are these: saturating concentrations; 40 μM inhibitor, 500 μM ADP with 2 mM MgCl2.

Data set [8] deals with BRAF kinase domain (residues 444 to 723, BRAF16mut) dimerization (Homo sapiens, UniProt P15056, A688R/F667E/I543A/I544S/I551K/K630S/K723G/L588N/L706S/L716E/P722S/Q562R/Q709R/S713E/Y673S). The data set is classed as binding. To be noted: 40 μM inhibitor, or 200 μM AMP-PNP / ADP with 200 μM MgCl2; Fig. 5e.
Data set [9] addresses BRAFKD F595R (Homo sapiens, UniProt P15056, F595R). Nature of the data set: BRET saturation curves, BRAF R spine mutant. The format is cell-based. The conditions noted are these: Fig. 6c.
The target of data set [10] is CRAF homodimers (Homo sapiens, UniProt P04049). Nature of the data set: BRET biosensor CRAF homodimers. The data set is classed as cell-based. To be noted: Fig. 2c.
In data set [11] the target is BRAF/CRAF dimers (Homo sapiens, UniProt P04049+P15056). Nature of the data set: Co-immunoprecipitation of full-length GFP-CRAF and Flag-BRAF. The data set is classed as cell-based. The conditions noted are these: SB202190 and SB203580 10 μM; Fig. 4d.
Data set [12] has as its target BRAF/BRAF dimers (Homo sapiens, UniProt P15056). Nature of the data set: Co-immunoprecipitation of full-length BRAF/BRAF dimers. The format is cell-based. The conditions noted are these: 10 μM; Fig. 4e.
In data set [13] the target is T2, CRAFKD / BRAFKD (Homo sapiens, UniProt P04049+P15056). Nature of the data set: High-throughput chemical screen with CRAFKD/BRAFKD biosensor. The conditions noted are these: 10 μM screening concentration; Fig. 4a. The data set is classed as cell-based.
For data set [14], the target named is BRAFKD T529M / BRAFKD T529M (Homo sapiens, UniProt P15056, T529M). The data set can be described thus: BRET dose-response, BRAFKD T529M gatekeeper mutant homodimerization. The data set is classed as cell-based. To be noted: Fig. 4g.
The target in data set [15] is KSR1KD / MEK1 (Homo sapiens, UniProt Q8IVT5). Nature of the data set: BRET selectivity assay, KSR1KD/MEK1 pair. The format is cell-based. To be noted: 10 μM; Fig. 4b.
Data set [16] concerns ERK phosphorylation. The data set can be described thus: ERK phosphorylation in RAF-expressing HEK293T cells. The format is cell-based. To be noted: 2 μM, Fig. 4f.
The target in data set [17] is T2, CRAFKD / BRAFKD. The data set can be described thus: BRET dose-response, CAAX-boxed CRAFKD/BRAFKD biosensor. The data set is classed as cell-based. To be noted: 10 μM; Fig. 4b.

Chain of KSR1KD / MEK1 (Q8IVT5 602-921): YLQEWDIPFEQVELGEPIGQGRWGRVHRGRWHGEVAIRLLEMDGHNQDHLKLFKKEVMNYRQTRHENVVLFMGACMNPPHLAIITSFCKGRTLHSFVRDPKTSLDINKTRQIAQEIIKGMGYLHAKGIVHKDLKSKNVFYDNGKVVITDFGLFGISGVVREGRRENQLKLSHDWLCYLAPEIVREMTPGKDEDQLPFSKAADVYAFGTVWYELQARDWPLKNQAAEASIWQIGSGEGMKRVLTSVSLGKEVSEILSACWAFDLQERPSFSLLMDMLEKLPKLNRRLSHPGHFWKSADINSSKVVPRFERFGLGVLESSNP
Chain of KSR1KD / MEK1 (Q02750 whole entry partner): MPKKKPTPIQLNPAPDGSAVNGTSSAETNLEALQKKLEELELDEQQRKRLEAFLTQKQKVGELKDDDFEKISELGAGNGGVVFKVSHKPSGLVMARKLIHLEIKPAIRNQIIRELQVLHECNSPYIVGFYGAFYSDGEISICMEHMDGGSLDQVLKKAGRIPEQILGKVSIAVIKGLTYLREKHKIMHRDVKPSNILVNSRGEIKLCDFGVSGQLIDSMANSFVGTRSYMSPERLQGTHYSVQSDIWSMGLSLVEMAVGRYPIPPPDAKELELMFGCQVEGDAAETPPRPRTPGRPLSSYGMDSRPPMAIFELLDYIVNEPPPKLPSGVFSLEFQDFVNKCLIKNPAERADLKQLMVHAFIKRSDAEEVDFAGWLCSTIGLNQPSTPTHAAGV
Chain of CRAF homodimers (P04049 340-648): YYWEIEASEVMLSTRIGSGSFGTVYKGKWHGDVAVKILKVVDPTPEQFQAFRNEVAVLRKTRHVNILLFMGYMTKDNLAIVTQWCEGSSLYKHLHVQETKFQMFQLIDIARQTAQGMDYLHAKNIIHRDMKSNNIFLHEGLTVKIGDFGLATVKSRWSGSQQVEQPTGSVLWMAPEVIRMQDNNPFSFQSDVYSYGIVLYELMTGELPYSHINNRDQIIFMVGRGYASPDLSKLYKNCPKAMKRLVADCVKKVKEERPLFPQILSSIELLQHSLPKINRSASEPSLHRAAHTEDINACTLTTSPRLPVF
Chain of CRAF homodimers (P04049 340-648): as above

Consider `Cc1cn(-c2cc(NC(=O)c3ccc(C)c(Nc4nccc(-c5cccnc5)n4)c3)cc(C(F)(F)F)c2)cn1` [Nilotinib], for which, in data set [1], the “induction of RAF dimerization in kinase inhibitor library screen” value is listed as “significant inducers of RAF dimerization”.
On to `CNC(=O)c1cc(Oc2ccc(NC(=O)Nc3ccc(Cl)c(C(F)(F)F)c3)cc2)ccn1` [Sorafenib], for which, in [1], the “RAFKD dimer induction profile across biosensor panel” value is listed as “relatively weak RAFKD dimer inducers”. Further, the “solubility in aqueous solution” value in data set [2] was “limited solubility”.
As for `OCCn1cc(-c2ccc3c(c2)CC/C3=N\O)c(-c2ccncc2)n1` [GDC-0879], the “response of R509H mutant biosensor to drug” value in [3] is on record as “insensitive”. For the same compound, in data set [4], the “time at which BRET induction plateaued” value was no more than 60 min and the “time at which activity (BRET induction) could first be detected” value came out at 5 min. Moreover, the “effect on BRET50 in titration experiments” value in data set [5] is recorded as “significantly reduced”. Also, the “RAFKD dimer induction profile across biosensor panel” value in [1] is “strong and broad inducers”. The “induction of BRAF/KSR1 dimers” value in data set [6] was “strongly induced”.
For the compound `Cn1cc(-c2ccc3c(c2)CCN3C(=O)Cc2cccc(C(F)(F)F)c2)c2c(N)ncnc21` [GSK2606414, 7-Methyl-5-(1-{[3-(trifluoromethyl)phenyl]acetyl}-2,3-dihydro-1H-indol-5-yl)-7H-p yrrolo[2,3-d]pyrimidin-4-amine], in data set [7], the “effect on PERK kinase domain dimerization” value is listed as “potently promotes”.
As to `Nc1ncnc2c1ncn2[C@@H]1O[C@H](COP(=O)(O)OP(=O)(O)O)[C@@H](O)[C@H]1O` [ADP], the “effect on PERK kinase domain dimerization” value in [7] is listed as “weakly promoted dimerization”. For the same compound, in data set [8], the “effect on BRAF kinase domain dimerization relative to apo state” value is “inhibited dimer formation”.
On to `Cc1ccc(NC(=O)c2cccc(C(C)(C)C#N)c2)cc1Nc1ccc2ncn(C)c(=O)c2c1` [AZ-628], for which, in data set [9], the “dimerization of BRAF R spine mutant (F595R), BRET saturation curves” value is on record as “promote dimerization”. For the same compound, the “effect on BRET50 in titration experiments” value in data set [5] is “significantly reduced”. Also, the “RAFKD dimer induction profile across biosensor panel” value in data set [1] was “strong and broad inducers”. Further, the “induction of CRAF homodimers” value in data set [10] is “strongly promoted”.
For the compound `Oc1ccc(-c2nc(-c3ccncc3)c(-c3ccc(F)cc3)[nH]2)cc1` [SB202190], the “BRAF/CRAF dimerization by co-immunoprecipitation” value in data set [11] is “increased BRAF/CRAF dimerization”. The “BRAF homodimerization by co-immunoprecipitation” value in data set [12] was “induced BRAF homodimerization”. Besides, the “rank among inducers of CRAFKD/BRAFKD dimerization in HTS” value in [13] is reported as “most potent inducer”. Moreover, the “effect of T529M gatekeeper mutant on inhibitor-induced BRAFKD homodimerization” value in data set [14] is listed as “reduces”. In data set [15], the “effect on BRET produced by the KSR1KD/MEK1 pair” value was “does not alter”. Moreover, in [16], the “ERK activity in RAF transfected cells” value is recorded as “stimulated ERK activity”. For the same compound, in [17], the “effect on CRAFKD/BRAFKD BRET signal” value was “induces”. For the same compound, in data set [8], the “effect on BRAF kinase domain dimerization relative to apo state” value is “promoted dimerization”.
Consider `C[S+]([O-])c1ccc(-c2nc(-c3ccncc3)c(-c3ccc(F)cc3)[nH]2)cc1` (centres unmarked) [SB203580], for which the “ERK activity in RAF transfected cells” value in data set [16] is “stimulated ERK activity”.
Consider `Cc1nc(Nc2ncc(C(=O)Nc3c(C)cccc3Cl)s2)cc(N2CCN(CCO)CC2)n1` [Dasatinib], for which, in data set [1], the “induction of RAF dimerization in kinase inhibitor library screen” value is on record as “significant inducers of RAF dimerization”.
Turning to `Cn1cc(-c2ccc3c(c2)CCN3C(=O)Cc2cc(F)cc(C(F)(F)F)c2)c2c(N)ncnc21` [close structural analog of GSK2606414, 5-(1-{[3-Fluoro-5-(trifluoromethyl)phenyl]acetyl}-2,3-dihydro-1H-indol-5-yl)-7-methyl-7H-pyrrolo[2,3-d]pyrimidin-4-amine], the “effect on PERK kinase domain dimerization” value in data set [7] is “strongly promoted dimerization”.
Take `Nc1ncnc2c1ncn2[C@@H]1O[C@H](COP(=O)(O)OP(=O)(O)NP(=O)(O)O)[C@@H](O)[C@H]1O` [AMP-PNP]: the “effect on BRAF kinase domain dimerization relative to apo state” value in data set [8] is recorded as “inhibited dimer formation”.
Turning to `CCCS(=O)(=O)Nc1ccc(F)c(C(=O)c2c[nH]c3ncc(Cl)cc23)c1F` [PLX4720], the “RAFKD dimer induction profile across biosensor panel” value in data set [1] is recorded as “relatively weak RAFKD dimer inducers”.
